Reference: patent US20200375958A1, “MEMBRANE ACTIVE MOLECULES” (priority 2017, published 2020)
Values joined by “and” are separate entries in the source; they are usually repeats but may differ in a detail not shown here. Equal values may be shown once.

How the values were obtained:
[1] = tested on: Tadpoles; experiment: Tadpole anesthesia test (movement suppressed on contact with rod); type: in vivo; conditions: read-out: Movement suppressed (%)
Experimental: Tadpoles were placed in a petri dish containing aquarium water. Four to eight tadpoles were placed in each petri dish. The aquarium water contained the specified test compound at the listed concentration. When the tadpoles stopped moving, a plastic rod was used to elicit motion once again by contact between the rod and tadpole. […] From this and the number of subjects, the percent of tadpoles in which movement was suppressed were calculated.
After 1 to 30 minutes, they were again contacted with a rod to ensure the anesthetic effect had worn off.
In some examples, subanesthetic concentrations of ethanol were added into the aquarium water. Tadpoles in which movement was prevented with exposure to a test compound and ethanol but not with exposure to a test compound alone were classified as partial anesthetics.

[2] = tested on: mouse
Experimental: Butyric acid was dissolved in water to form an 8 M solution. 0.5 mL of the 8 M solution of butyric acid was injected subcutaneously (at the back of the neck) into the mouse.
3-hydroxybutyric acid was dissolved in water to form 1 M, 1.5 M, and 2 M solutions. 0.2 mL of a 1.5 M solution of 3-hydroxybutyric acid was injected into a tail vein of a CD-1 mouse. […] This was repeated for at least 2 more times on subsequent days.
Ethylmalonic acid was dissolved in water to form 2 M, 3 M, and 4 M solutions. 0.2 mL of a 3 M solution of ethylmalonic acid was injected into a tail vein of a mouse. […] This was repeated for at least 2 more times on subsequent days.
Ethylmalonic acid was dissolved in water to form a 4 M solution. 0.5 mL of the 4 M solution of ethylmalonic acid was injected subcutaneously into the mouse.

[3] = tested on: CF-1 mice; experiment: Anticonvulsant test in mice: metrazol (pentylenetetrazol) tail vein infusion, time to twitch and seizure; type: in vivo, mouse; conditions: 8 M butyric acid solution plus metrazol
Experimental: CF-1 mice were used in this study. Number 20 PE tubing to cannulate a mouse tail vein was used. An infusion pump was used to deliver a solution at a rate of 0.34 mL/min. A hemostat was used to prevent backflow in the PE tubing before the experiment stated. To begin the experiment, the hemostat that was clamped to the PE 20 tubing was removed, the infusion of the solution was started into the tail IV of the mouse, and the timer was started.
The study reflects the time in seconds from the start of the infusion to the time of twitch and onset of seizure, or 90 seconds, whichever is sooner. When the seizure occurs, the infusion is turned off.
As a control, metrazol (pentylenetetrazol) in a 0.5% solution (5 mg/mL) in water was prepared. Pentylenetetrazol is used as a control to study seizure phenomena in and to identify compounds that may control seizure susceptibility. Solutions of 8 M butyric acid and 1.5 M 3-hydroxybutyric acid were made.
The time to twitch and time to seizure of the mouse in seconds is recorded in Tables 3-5, below.

[4] = 0.5 mL of 8 M solution in water, subcutaneous (back of the neck)

CCCC(=O)O [Butyric acid]
responders at 62500 µM [1]: 100% | responders at 125000 µM [1]: 100% | responders at 250000 µM [1]: 100% | responders at 500000 µM [1]: 100% | Lethality to the mouse ([2]; 0.2 mL of 8 M solution in water, intravenous, tail vein): lethal | Anesthetic effect on the mouse [2, 4]: became anesthetized or lost consciousness | Time until mouse became anesthetized or lost consciousness [2, 4]: 10 to 15 min | Time until mouse woke up [2, 4]: several hours | Butyric Acid and Metrazol Time to Seizures (seconds), Avg. ([3]; average of 13 mice): 51.2 s | Butyric Acid and Metrazol Time to Twitch (seconds), Avg. ([3]; average of 13 mice): 41.4 s | Butyric Acid and Metrazol Time to Seizures ([3]; individual mice): 51 seconds and 50 seconds (2×) and 47 seconds and 57 seconds (3×) and 42 seconds and 66 seconds and 41 seconds and 44 seconds and 38 seconds and 65 seconds | Butyric Acid and Metrazol Time to Twitch ([3]; individual mice): 38 seconds and 42 seconds and 44 seconds and 50 seconds and 34 seconds (2×) and 53 seconds (2×) and 48 seconds and 36 seconds (2×) and 35 seconds (2×)
